According to patent US8962600B2, “Neuroprotective compounds and their use” (The Medical College of Wisconsin, Inc., priority 2009, dated 2015):

How the values were obtained:
[1] = tested on: TNF-α; assay: LPS-induced TNF-α release in primary microglia, LUMINEX immunoassay; assay type: cell-based, mouse; details: diapocynin 10 μM, LPS 24 hr
Method: Primary microglia were obtained from 1-2 day old C57/b16 mouse pups. Upon collection, whole brains were kept in ice-cold DMEM-F12 medium containing 10% FBS, 1× sodium pyruvate, 1× NEAAs, 100 units pen/strep, and Q. After collection, the brains were placed in 0.25% trypsin-EDTA and incubated at 37° C., with gentle shaking every 5-10 min. After 30 min, the trypsin was removed, and the brains are washed in warmed medium twice. After washing, medium was added to the brains, and the brains were homogenized using gentle pipetting, starting with a 25 ml pipette and moving to smaller pipette tips as the brains were broken up. When the brains were sufficiently homogenized to a single-cell suspension, they were filtered with a 70 μm nylon filter, which allowed microglia and astrocytes to be collected. The resultant cell suspension was plated in T-75 flasks and allowed to grow for 12-14 days at 37° C., 5% CO2. […]
Cytokine levels of BV2 and microglial cells treated with diapocynin were determined by LUMINEX® multiplex immunoassay. […]
Cytokine standards and controls were adjusted to 40 μl volume and the LUMINEX® Samples were run on a LUMINEX® 200 Total System and analyzed with Multiplex Analysis—LUMINEX® Software (Invitrogen, Carlsbad, Calif.).

[2] = tested on: tyrosine hydroxylase (TH); assay: Tyrosine hydroxylase expression in striatum and substantia nigra, Western blot and DAB immunostaining; assay type: in vivo, C57BL/6 mice
Method: (§1) Six- to 8-week-old C57BL/6 mice weighing 24 to 28 g were housed in standard conditions of constant temperature (22±1° C.), humidity (relative, 30%), and a 12-h light/dark cycle. Mice were allowed free access to food and water. Use of the animals and protocol procedures were approved and supervised by the Committee on Animal Care at Iowa State University (Ames, Iowa). For neurodegeneration studies, mice either received diapocynin (300 mg/kg dose) by oral gavage for 1 day (pre-treatment before MPTP administration), 5 days (co-treatment with MPTP), or 7 days (post-treatment after MPTP).
DAB immunostaining was performed in striatal and substantia nigra sections as described previously (57). In brief, 1 day or 7 days after final dosing of MPTP, mice were sacrificed and perfused with 4% PFA and post-fixed with PFA and 30% sucrose, respectively. Next, fixed brains were cut into 30 μm sections and kept in 30% sucrose-ethylene glycol solutions at −20° C. On the day of staining, sections were rinsed with PBS and incubated with either anti-TH (rabbit anti-mouse, 1:1800; Calbiochem, Gibstown, N.J.), anti-IBA-1 (goat anti-mouse, 1:1000; Dako), anti-GFAP (mouse anti-mouse, 1:1000; Millipore, Billerica, Mass.), or anti-gp91phox (mouse anti-mouse, 1:500; Santa Cruz Biotechnology) overnight at 4° C. […]

[3] = tested on: MPTP mouse model of Parkinson's Disease; assay: HPLC analysis of striatal dopamine and its metabolites, MPTP mouse model (Example 3); assay type: in vivo, C57BL/6 mice; details: MPTP- and diapocynin-treated mice, diapocynin 300 mg/kg oral gavage, MPTP 25 mg/kg i.p.
Method: as §1
For checking inflammatory and oxidative stress markers, mice were gavaged diapocynin (300 mg/kg dose) 1 day before MPTP treatment (pre-treatment) and continued for another 4 days of co-treatment with MPTP. In the sub-acute MPTP regimen, MPTP (25 mg/kg) was injected intraperitoneally once per day from day 2 to day 7. Control mice received saline at the same dosage.
Striatal dopamine (DA), DOPAC and HVA levels were quantified by high-performance liquid chromatography (HPLC) with electrochemical detection. Samples were prepared and quantified as described previously (48, 56). In brief, 7 days after MPTP injection mice were sacrificed, striata were collected and stored at −80° C. On the day of analysis, neurotransmitters from striatal tissues were extracted using an antioxidant extraction solution (0.1 M perchloric acid containing 0.05% Na2EDTA and 0.1% Na2S2O5) and isoproterenol (as an internal standard). The extracts were filtered in 0.22 μm spin tubes, and 20 μl of the samples were loaded for analysis. DA, DOPAC and HVA were separated isocratically on a reversed-phase column with a flow rate of 0.6 ml/min. An HPLC system with an automatic sampler equipped with refrigerated temperature control (model 542; ESA, Inc., Bedford, Mass.) was used for HPLC analysis. The electrochemical detection system consisted of a Coulochem (model 5100A, ESA, Inc.) with a microanalysis cell (model 5014A, ESA, Inc.) and a guard cell (model 5020, ESA, Inc.). […]

COc1cc(C(C)=O)cc(-c2cc(C(C)=O)cc(OC)c2O)c1O [diapocynin]
blocking LPS-induced release of TNF-α [1]: very effective | expression of TH in striatum and substantia nigra (Western blot) ([2]; MPTP- and diapocynin-treated mice, 300 mg/kg oral gavage): less reduction | loss of TH-positive neurons and terminals in striatum and substantia nigra (TH-DAB immunostaining) ([2]; MPTP-treated mice with diapocynin treatment 300 mg/kg oral gavage): substantially prevented | striatal DOPAC levels [3]: significant preservation | striatal HVA levels [3]: significant preservation | decrease of dopamine levels in striatum ([3]; 7 days after MPTP): less than 40%
